Measurements from patent US20130028865A1, “Combination of a Macrocyclic Inhibitor of HCV, A Non-Nucleoside and a Nucleoside” (MEDIVIR AB, priority 2010, published 2013).
Like-named read-outs stand apart in the source and are kept apart here.

How the values were obtained:
[1] = system: HCV RNA replication (HCV type 1b replicon in Huh-7 luc/neo cells); test: HCV replicon assay (Huh-Luc, luciferase read-out); format: cell-based; settings: Hepatitis C virus, Huh-7, 72 h, HCV replicon test, three days incubation
From the text: The EC50 ratio between the active ingredients of formula I, II and III in the combinations of the invention may vary. As used herein the term “EC50 ratio” refers to the ratio of the EC50 value of the compound of formula I to the EC50 value of the compound of formula II, and to the EC50 value of the compound of formula III, said EC50 values being obtained in the HCV replicon test. The latter in particular is the test method described hereinafter.
The in vitro antiviral activity against HCV of the compound of formula I or of formula II or of formula III can be tested in a cellular HCV replicon system based on Lohmann et al. (1999) Science 285:110-113, with the further modifications described by Krieger et al. (2001) Journal of Virology 75: 4614-4624 (incorporated herein by reference), which is further exemplified in the examples section. […]
The replicon cells were plated in 384 well plates in the presence of the test and control compounds which were added in various concentrations. Following an incubation of three days, HCV replication was measured by assaying luciferase activity (using standard luciferase assay substrates and reagents, and a Perkin Elmer ViewLux™ ultraHTS microplate imager). […] The inhibitory activity of the compound was monitored on the Huh-Luc cells, enabling a dose-response curve for each test compound. […]

[2] = system: HCV RNA replication (HCV type 1b replicon in Huh-7 luc/neo cells); settings: HCV replicon test; reported in WO2010/003658; cited from earlier work

Compound	EC50 [1] [µM]	EC50 [2] [µM]
C[C@@H]1[C@H](n2ccc(N)nc2=O)O[C@@](CO)(N=[N+]=[N-])[C@H]1O [compound II, 4-amino-1-((2R,3S,4S,5R)-5-azido-4-hydroxy-5-hydroxymethyl-3-methyl-tetrahydrofuran-2-yl)-1H-pyrimidin-2-one]	5	
COc1ccc2c(O[C@@H]3C[C@H]4C(=O)N[C@]5(C(=O)NS(=O)(=O)C6CC6)C[C@H]5C=CCCCCN(C)C(=O)[C@@H]4C3)cc(-c3nc(C(C)C)cs3)nc2c1C (stereo in doubt) [compound I, (1R,4R,6S,15R,17R)-cis-N-[17-[2-(4-isopropylthiazole-2-yl)-7-methoxy-8-methyl-quinolin-4-yloxy]-13-methyl-2,14-dioxo-3,13-diazatricyclo[13.3.0.0^4,6]octadec-7-ene-4-carbonyl](cyclopropyl)sulfonamide]	0.008	
COc1ccc2c(c1)C=C1Cn3c-2c(C2CCCCC2)c2ccc(cc23)C(=O)NS(=O)(=O)N(C)CCOCCN(C)C1=O [compound III]		0.07
